From patent US7304166B2, “Benzenesulfonate salt of 4-fluoro-2-cyanopyrrolidine derivatives” (Taisho Pharmaceutical Co., Ltd., priority 2002, dated 2007) come the findings set out here.

Where only a bound is given, the exact number is not on record here.

What all share (format): physicochemical
A short description of series [1]: Solid-state stability testing (remaining percentage by HPLC). As to the method:
Each analyte (about 1 mg) was precisely metered and stored in a screw-capped test tube covered with aluminum foil for light shielding, which was sealed under heated conditions (70° C.) or opened under heated and humidified conditions (40° C., 75% RH). The remaining percentage of each drug was measured in the following manner. After completion of a given period of storage, the test tubes were supplemented with 10 ml HPLC mobile phase to dissolve the analytes and then provided for quantification by HPLC. The results were compared in area with the initial values obtained before heating or before heating and humidification to calculate the remaining percentage of drugs.
Column temperature: 40° C.
Detection: UV absorptiometer (Detection wavelength: 210 nm)
Mobile phase: water/acetonitrile/phosphoric acid/SDS (700:300:1:2)

Series [2] in a line: Testing for weight change under humidified conditions. To be noted: room temperature; for State / Change in weight: desiccator containing water. On the procedure: Each analyte (10.0 mg) was metered into a microtube (diameter: 8 mm, length: 50 mm) and allowed to stand in a desiccator containing water in such a manner as to keep the tube from coming into contact with water. The desiccator was allowed to stand at room temperature. The analytes were monitored for their state and measured for their weight with time. Changes in weight were expressed as percentages (%).

The nature of series [3]: Compatibility testing with additives (remaining percentage by HPLC). To be noted: 65° C. for 1 week, sealed, methanesulfonate salt. On the procedure:
This testing was performed according to the report of Serajuddin A. T. M. et al. (J. Pharm. Sci., 88, 696-704, 1999). A drug substance and additives were metered into a screw-capped test tube according to Recipe A (10 mg drug substance, 68 mg crystalline cellulose, 2 mg magnesium stearate) or Recipe B (10 mg drug substance, 68 mg lactose, 2 mg hydrogenated oil) and mixed in a rotary mixer (MIX-ROTAR VMR-5, Iuchi Seieido Co., Ltd., Japan) for 1 hour. The mixture according to Recipe A or B was further stirred using a vortex mixer (TOUCH MIXER MT-31, Yamato Scientific Co., Ltd., Japan), provided that Recipe A was supplemented with no additional ingredient, while Recipe B was supplemented with 16 μl purified water. The mixtures were stored at 65° C. for 1 week under sealed and completely light-shielded conditions and then measured for drug content after storage to calculate the remaining percentage of each drug in each recipe.
The drug content was determined in the following manner. […] The resulting solutions were each filtered through a 0.45 μm membrane filter, 5 ml of which was sampled and filled up with 50% methanol in a 10 ml measuring flask for use as a sample solution and then quantified by HPLC. […]

Setting [4] is: 40° C., 75% RH for 1 month, opened, light-shielded.
Setting [5] is: 70° C. for 3 days, sealed, light-shielded.
Where [6] appears, read: humidified conditions, over the test period.

Take `CC(C)(CO)NCC(=O)N1C[C@@H](F)C[C@H]1C#N.O=S(=O)(O)c1ccccc1` [Example 1, (2S,4S)-2-cyano-4-fluoro-1-[(2-hydroxy-1,1-dimethyl)ethylamino]acetylpyrrolidine benzenesulfonate salt]: the “Remaining percentage of drug” value in series [1] (setting [4]) is 99.6%; in series [1] (setting [5]), 99.3%; in series [1] (under either condition (70° C. 3 days; 40° C., 75% RH 1 month)) it was no less than 99%. Also, the State result in series [2] (Day 3) is “No change”. Besides, the “Change in weight under humidified conditions” value in series [2] (setting [6]) is on record as “no change in weight”. Besides, the “State under humidified conditions” value in series [2] (setting [6]) was “no deliquescence”.
Take `CC(C)(CO)NCC(=O)N1C[C@@H](F)C[C@H]1C#N.Cl` [Reference Example 1, (2S,4S)-2-cyano-4-fluoro-1-[(2-hydroxy-1,1-dimethyl)ethylamino]acetylpyrrolidine hydrochloride salt]: the “Remaining percentage of drug” value in series [1] (setting [4]) came out at 92.6%. For the same molecule, the “Remaining percentage of drug” value in series [1] (setting [5]) was 97.0%. Besides, in series [2] (Day 1), the Change in weight result was “+44%” and the State result is listed as “Deliquescence”. Besides, the “State under humidified conditions” value in series [2] (setting [6]) was “deliquesced”.
`CC(C)(CO)NCC(=O)N1C[C@@H](F)C[C@H]1C#N.CS(=O)(=O)O` [Reference Example 2, (2S,4S)-2-cyano-4-fluoro-1-[(2-hydroxy-1,1-dimethyl)ethylamino]acetylpyrrolidine methanesulfonate salt]: the “Remaining percentage of drug” value in series [1] (setting [4]) is 95.9%; in series [1] (setting [5]), 95.5%; in series [3] (Recipe A (crystalline cellulose, magnesium stearate)), 91.6%; in series [3] (Recipe B (lactose, hydrogenated oil, purified water)) it was 74.5%. Besides, the Change in weight entry in series [2] (Day 1) is reported as “+28%”; in series [2] (Day 2), “+71%”. Besides, the State entry in series [2] (Day 2) is on record as “Deliquescence”. Moreover, in series [2] (setting [6]), the “State under humidified conditions” value was “deliquesced”.
